According to patent US9284321B2, “Piperazino[1,2-a]indol-1-ones and [1,4]diazepino[1,2-a]indol-1-one” (Hoffmann-La Roche Inc., priority 2012, dated 2016):

Assays:
[1] = system: human embryonic stem cell derived neural stem cells (NSCs); assay: Neural Stem Cell Proliferation Assay (neurogenesis assay, ATP levels by CellTiterGlo); format: cell-based; conditions: 96 h, compound concentration at which 150% activity of control (100%) is reached, NSC proliferation by ATP level after 4 days incubation, dose response 8 μM to 8 nM
Description: Neurogenic properties of small molecules are determined based on the proliferation of human embryonic stem cell derived neural stem cells (NSCs) which were derived via a dual smad inhibition as previously described (Chambers, S. M., et al., Highly efficient neural conversion of human ES and iPS cells by dual inhibition of SMAD signaling, Nature biotechnology, 2009. 27(3): p. 275-80.)
Compounds respond is measured by the increase in cells based on ATP levels
(Promega:CellTiterGlo®) after an incubation period of 4 days.
NSCs are thawed and expanded over 3 passages. On the 14th day, NSCs are seeded in Polyornithin/Laminin coated 384 well plates at a cell density of 21′000 cells/cm^2 in a media volume of 38 μl.
4 hours after cell seeding, compound solutions are added at a volume of 2 μl. Stock solutions of the compounds (water, 5% DMSO) are diluted to obtain a dose response (11 points, dilution factor is 2), ranging from 8 μM to 8 nM. Controls are run to consistently determine the neurogenic properties of the cells:
Negative (neutral) control is cell culture Media (final DMSO concentration: 0.25%).
• 1. cell culture Media+100 ng/ml FGF2 (final DMSO concentration: 0.1%) • 2. cell culture Media+20 ng/ml EGF (final DMSO concentration: 0.1%) • 3. cell culture Media+100 ng/ml Wnt3a (final DMSO concentration: 0.1%)
After 4 days incubation at 37° C., 5% CO2, the amount of ATP per well is quantified. The ATP concentration is proportional to the cell number. ATP is quantified by using the Promega CellTiterGlo® kit. The CellTiterGlo® reagents contain a cell lysis buffer, a thermo stable luciferase (UltraGlo™ recombinant luciferase), magnesium and luciferin. Luciferin reacts with ATP producing oxyluciferin, AMP and light. The luminescence signal is proportional to the ATP content.
The value of negative (neutral) control is determined for each assay plate by taking the average of 16 negative control wells. The neurogenic compound response is calculated for each compound as (compound/Negative Control)*100.
The values of EC150 from the dose response curve are determined for each test compound. The EC150 is the compound concentration at which 150% activity of control (100%) is reached.

Structure (SMILES) | EC (150% of control) [1] [µM] | melting point [°C]
O=C1NCCCn2c1cc1cc(Cl)cc(-c3ccc(Cl)cc3)c12 [Example 53, 9-Chloro-7-(4-chloro-phenyl)-2,3,4,5-tetrahydro-[1,4]diazepino[1,2-a]indol-1-one] | 0.15 | 237
COc1ccc(-c2cc(Cl)cc3cc4n(c23)CCCNC4=O)cc1 [Example 54, 9-Chloro-7-(4-methoxy-phenyl)-2,3,4,5-tetrahydro-[1,4]diazepino[1,2-a]indol-1-one] | 0.07 | 218
Cc1cc(-c2ccc(F)c(F)c2)c2c(c1)cc1n2CCCNC1=O [Example 55, 7-(3,4-Difluoro-phenyl)-9-methyl-2,3,4,5-tetrahydro-[1,4]diazepino[1,2-a]indol-1-one] | 2.8 | 231
COc1ccc(-c2cc(C)cc3cc4n(c23)CCCNC4=O)cc1 [Example 56, 7-(4-Methoxy-phenyl)-9-methyl-2,3,4,5-tetrahydro-[1,4]diazepino[1,2-a]indol-1-one] | 0.35 | 208
Cc1cc(-c2ccc(F)cc2)c2c(c1)cc1n2CCCNC1=O [Example 57, 7-(4-Fluoro-phenyl)-9-methyl-2,3,4,5-tetrahydro-[1,4]diazepino[1,2-a]indol-1-one] | 1.44 | 234.5
Cc1cc(-c2ccc(Cl)cc2)c2c(c1)cc1n2CCCNC1=O [Example 58, 7-(4-Chloro-phenyl)-9-methyl-2,3,4,5-tetrahydro-[1,4]diazepino[1,2-a]indol-1-one] | 1.51 | 258.5
Cc1cc(-c2ccc(Cl)cc2)c2c(c1)cc1n2CCNC1=O [Example 59, 6-(4-Chloro-phenyl)-8-methyl-3,4-dihydro-2H-pyrazino[1,2-a]indol-1-one] | 0.18 | 269
Cc1cc(-c2ccc(F)c(F)c2)c2c(c1)cc1n2CCNC1=O [Example 60, 6-(3,4-Difluoro-phenyl)-8-methyl-3,4-dihydro-2H-pyrazino[1,2-a]indol-1-one] | 0.71 | 249.5
COc1ccc(-c2cc(C)cc3cc4n(c23)CCNC4=O)cc1 [Example 61, 6-(4-Methoxy-phenyl)-8-methyl-3,4-dihydro-2H-pyrazino[1,2-a]indol-1-one] | 0.059 | 245
Cc1cc(-c2ccc(F)cc2)c2c(c1)cc1n2CCNC1=O [Example 62, 6-(4-Fluoro-phenyl)-8-methyl-3,4-dihydro-2H-pyrazino[1,2-a]indol-1-one] | 0.32 | 257
CN1CCn2c(cc3cc(F)cc(-c4ccc(F)cc4)c32)C1=O [Example 63, 8-Fluoro-6-(4-fluoro-phenyl)-2-methyl-3,4-dihydro-2H-pyrazino[1,2-a]indol-1-one] | 0.6 | 212
Cc1c2n(c3c(-c4ccc(F)c(F)c4)cc(Cl)cc13)CCNC2=O [Example 64, 8-Chloro-6-(3,4-difluoro-phenyl)-10-methyl-3,4-dihydro-2H-pyrazino[1,2-a]indol-1-one] | 0.12 | 235.5
Cc1c2n(c3c(-c4ccc(Cl)cc4)cc(Cl)cc13)CCNC2=O [Example 65, 8-Chloro-6-(4-chloro-phenyl)-10-methyl-3,4-dihydro-2H-pyrazino[1,2-a]indol-1-one] | 0.019 | 236.5
Cc1c2n(c3c(-c4ccc(F)cc4)cc(Cl)cc13)CCNC2=O [Example 66, 8-Chloro-6-(4-fluoro-phenyl)-10-methyl-3,4-dihydro-2H-pyrazino[1,2-a]indol-1-one] | 0.047 | 227.5
COc1ccc(-c2cc(Cl)cc3c(C)c4n(c23)CCNC4=O)cc1 [Example 67, 8-Chloro-6-(4-methoxy-phenyl)-10-methyl-3,4-dihydro-2H-pyrazino[1,2-a]indol-1-one] | 0.008 | 264
Cc1c2n(c3c(-c4ccc(F)c(F)c4)cc(Cl)cc13)CCCNC2=O [Example 68, 9-Chloro-7-(3,4-difluoro-phenyl)-11-methyl-2,3,4,5-tetrahydro-[1,4]diazepino[1,2-a]indol-1-one] | 0.12 | 254

Structure (SMILES) | EC (150% of control) [1] [µM] | melting point [°C]
Cc1c2n(c3c(-c4ccc(Cl)cc4)cc(Cl)cc13)CCCNC2=O [Example 69, 9-Chloro-7-(4-chloro-phenyl)-11-methyl-2,3,4,5-tetrahydro-[1,4]diazepino[1,2-a]indol-1-one] | 0.061 | 271
Cc1c2n(c3c(-c4ccc(F)cc4)cc(Cl)cc13)CCCNC2=O [Example 70, 9-Chloro-7-(4-fluoro-phenyl)-11-methyl-2,3,4,5-tetrahydro-[1,4]diazepino[1,2-a]indol-1-one] | 0.063 | 260
COc1ccc(-c2cc(Cl)cc3c(C)c4n(c23)CCCNC4=O)cc1 [Example 71, 9-Chloro-7-(4-methoxy-phenyl)-11-methyl-2,3,4,5-tetrahydro-[1,4]diazepino[1,2-a]indol-1-one] | 0.021 | 240.5
Cc1c2n(c3c(-c4ccc(F)c(F)c4)cc(F)cc13)CCNC2=O [Example 72, 6-(3,4-Difluoro-phenyl)-8-fluoro-10-methyl-3,4-dihydro-2H-pyrazino[1,2-a]indol-1-one] | 0.12 | 229.5
Cc1c2n(c3c(-c4ccc(Cl)cc4)cc(F)cc13)CCNC2=O [Example 73, 6-(4-Chloro-phenyl)-8-fluoro-10-methyl-3,4-dihydro-2H-pyrazino[1,2-a]indol-1-one] | 0.017 | 209.5
Cc1c2n(c3c(-c4ccc(F)cc4)cc(F)cc13)CCNC2=O [Example 74, 8-Fluoro-6-(4-fluoro-phenyl)-10-methyl-3,4-dihydro-2H-pyrazino[1,2-a]indol-1-one] | 0.072 | 182
COc1ccc(-c2cc(F)cc3c(C)c4n(c23)CCNC4=O)cc1 [Example 75, 8-Fluoro-6-(4-methoxy-phenyl)-10-methyl-3,4-dihydro-2H-pyrazino[1,2-a]indol-1-one] | 0.005 | 237
N#Cc1cc(-c2ccc(F)c(F)c2)c2c(c1)cc1n2CCNC1=O [Example 76, 6-(3,4-Difluoro-phenyl)-1-oxo-1,2,3,4-tetrahydro-pyrazino[1,2-a]indole-8-carbonitrile] | 0.02 | 289.5
N#Cc1cc(-c2ccc(Cl)cc2)c2c(c1)cc1n2CCNC1=O [Example 77, 6-(4-Chloro-phenyl)-1-oxo-1,2,3,4-tetrahydro-pyrazino[1,2-a]indole-8-carbonitrile] | 0.02 | 316.5
N#Cc1cc(-c2ccc(F)cc2)c2c(c1)cc1n2CCNC1=O [Example 78, 6-(4-Fluoro-phenyl)-1-oxo-1,2,3,4-tetrahydro-pyrazino[1,2-a]indole-8-carbonitrile] | 0.012 | 297.5
COc1ccc(-c2cc(C#N)cc3cc4n(c23)CCNC4=O)cc1 [Example 79, 6-(4-Methoxy-phenyl)-1-oxo-1,2,3,4-tetrahydro-pyrazino[1,2-a]indole-8-carbonitrile] | 0.004 | 278.5
Cc1c2n(c3c(-c4ccccc4)cc(F)cc13)CCNC2=O [Example 80, 8-Fluoro-10-methyl-6-phenyl-3,4-dihydro-2H-pyrazino[1,2-a]indol-1-one] | 0.098 | 244
Cc1ccc(-c2cc(F)cc3c(C)c4n(c23)CCNC4=O)cc1 [Example 81, 8-Fluoro-10-methyl-6-p-tolyl-3,4-dihydro-2H-pyrazino[1,2-a]indol-1-one] | 0.014 | 226
Cc1c2n(c3c(-c4ccc(C(F)(F)F)cc4)cc(F)cc13)CCNC2=O [Example 82, 8-Fluoro-10-methyl-6-(4-trifluoromethyl-phenyl)-3,4-dihydro-2H-pyrazino[1,2-a]indol-1-one] | 0.036 | 269.5
Cc1c2n(c3c(-c4ccncc4)cc(F)cc13)CCNC2=O [Example 83, 8-Fluoro-10-methyl-6-pyridin-4-yl-3,4-dihydro-2H-pyrazino[1,2-a]indol-1-one] | 0.039 | 290
